Values quoted from earlier work in PMC10707982, “Solubility and Thermodynamics Data of Cabozantinib Malate in Various Aqueous Solutions of Dimethyl Sulfoxide at Different Temperatures” (Molecules, 2023).

Set-up: method as in doi:10.1016/j.molliq.2020.115146
Settings: neat solvent; cited from earlier work

Row | Compound | HSP of neat solvent (δ1, δ2) [MPa^1/2]
1 | C[S+](C)[O-] [DMSO, dimethyl sulfoxide] | 23.60
2 | O [H2O, water] | 47.80
